Columns and labels:
Assay type in all cases: functional, cell-based
BOKU = assay: cells; settings: Homo sapiens;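 note: growth inhibition of the human BOKU cell line, read out by a cell viability assay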
Description: SANGER: Inhibition of human BOKU cell growth in a cell viability assay.

EVSA-T = assay: cells; settings: Homo sapiens;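 note: growth inhibition of EVSA-T cells, read out with a cell viability assay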
Description: SANGER: Inhibition of human EVSA-T cell growth in a cell viability assay.

NCI-H345 = assay: cells; settings: Homo sapiens;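 note: growth inhibition of NCI-H345 cells measured with a cell viability assay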
Description: SANGER: Inhibition of human NCI-H345 cell growth in a cell viability assay.

IM-9 = assay: SANGER: Inhibition of human IM-9 cell growth in a cell viability assay.
ECC4 = assay: cells; settings: Homo sapiens;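 note: growth inhibition of ECC4 cells, read out with a cell viability assay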
Description: SANGER: Inhibition of human ECC4 cell growth in a cell viability assay.

BC-3 = assay: cells; settings: Homo sapiens;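 note: cell viability assay measuring growth inhibition of human BC-3 cells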
Description: SANGER: Inhibition of human BC-3 cell growth in a cell viability assay.

BL-70 = assay: SANGER: Inhibition of human BL-70 cell growth in a cell viability assay.
SIMA = assay: cells; settings: Homo sapiens;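 note: growth inhibition of SIMA cells, measured with a cell viability readout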
Description: SANGER: Inhibition of human SIMA cell growth in a cell viability assay.

NCI-H524 = assay: cells; settings: Homo sapiens;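 note: growth inhibition of human NCI-H524 cells, read out through a cell viability assay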
Description: SANGER: Inhibition of human NCI-H524 cell growth in a cell viability assay.

PF-382 = assay: cells; settings: Homo sapiens
Description: SANGER: Inhibition of human PF-382 cell growth in a cell viability assay.

THP-1 = assay: cells; settings: Homo sapiens;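 note: growth inhibition of THP-1 cells, read out via a cell viability assay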
Description: SANGER: Inhibition of human THP-1 cell growth in a cell viability assay.

SIG-M5 = assay: cells; settings: Homo sapiens;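 note: cell viability assay read-out, measuring how strongly growth of cultured human SIG-M5 cells is inhibited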
Description: SANGER: Inhibition of human SIG-M5 cell growth in a cell viability assay.

NCI-H2171 = assay: cells; settings: Homo sapiens;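 note: growth inhibition of human NCI-H2171 cells, read out by a cell viability assay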
Description: SANGER: Inhibition of human NCI-H2171 cell growth in a cell viability assay.

LC4-1 = assay: cells; settings: Homo sapiens;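 note: growth inhibition of LC4-1 cells, read out with a cell viability assay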
Description: SANGER: Inhibition of human LC4-1 cell growth in a cell viability assay.

LC-1F = assay: cells; settings: Homo sapiens;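 note: growth inhibition of human LC-1F cells, read out with a cell viability assay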
Description: SANGER: Inhibition of human LC-1F cell growth in a cell viability assay.

EB-3 = assay: cells; settings: Homo sapiens;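 note: human EB-3 cells, growth inhibition read out via a cell viability assay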
Description: SANGER: Inhibition of human EB-3 cell growth in a cell viability assay.

TE-441-T = assay: cells; settings: Homo sapiens
Description: SANGER: Inhibition of human TE-441-T cell growth in a cell viability assay.

HT55 = assay: cells; settings: Homo sapiens;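 note: cell viability readout measuring growth inhibition of human HT55 cells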
Description: SANGER: Inhibition of human HT55 cell growth in a cell viability assay.

HOP-92 = assay: cells; settings: Homo sapiens;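 note: cell viability readout, with IC50 reflecting inhibition of HOP-92 cell growth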
Description: SANGER: Inhibition of human HOP-92 cell growth in a cell viability assay.

M059J = assay: cells; settings: Homo sapiens;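 note: growth inhibition of M059J cells, read out with a cell viability assay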
Description: SANGER: Inhibition of human M059J cell growth in a cell viability assay.

HCC70 = assay: cells; settings: Homo sapiens;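 note: cell viability assay measuring how strongly the compound suppresses proliferation of HCC70 cells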
Description: SANGER: Inhibition of human HCC70 cell growth in a cell viability assay.

PA-1 = assay: cells; settings: Homo sapiens;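 note: IC50 for suppression of PA-1 cell proliferation, determined with a cell viability read-out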
Description: SANGER: Inhibition of human PA-1 cell growth in a cell viability assay.

PANC-08-13 = assay: cells; settings: Homo sapiens
Description: SANGER: Inhibition of human PANC-08-13 cell growth in a cell viability assay.

RVH-421 = assay: cells; settings: Homo sapiens
Description: SANGER: Inhibition of human RVH-421 cell growth in a cell viability assay.

CHL-1 = assay: cells; settings: Homo sapiens;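 note: cell growth inhibition, read out with a cell viability assay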
Description: SANGER: Inhibition of human CHL-1 cell growth in a cell viability assay.

MDA-MB-231 = assay: cells; settings: Homo sapiens
Description: SANGER: Inhibition of human MDA-MB-231 cell growth in a cell viability assay.

RD = assay: cells; settings: Homo sapiens
Description: SANGER: Inhibition of human RD cell growth in a cell viability assay.

VMRC-RCZ = assay: cells; settings: Homo sapiens
Description: SANGER: Inhibition of human VMRC-RCZ cell growth in a cell viability assay.

ME-180 = assay: cells; settings: Homo sapiens;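 note: cell viability assay measuring growth inhibition of ME-180 cells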
Description: SANGER: Inhibition of human ME-180 cell growth in a cell viability assay.

NCI-H2342 = assay: cells; settings: Homo sapiens;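 note: growth inhibition of the cancer cell line, determined with a cell viability assay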
Description: SANGER: Inhibition of human NCI-H2342 cell growth in a cell viability assay.

CaR-1 = assay: cells; settings: Homo sapiens;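 note: growth inhibition of human CaR-1 cancer cells, read out with a cell viability assay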
Description: SANGER: Inhibition of human CaR-1 cell growth in a cell viability assay.

NCI-H2009 = assay: cells; settings: Homo sapiens;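 note: cell viability assay measuring inhibition of NCI-H2009 cell growth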
Description: SANGER: Inhibition of human NCI-H2009 cell growth in a cell viability assay.

DU-145 = assay: cells; settings: Homo sapiens
Description: SANGER: Inhibition of human DU-145 cell growth in a cell viability assay.

WM-115 = assay: cells; settings: Homo sapiens
Description: SANGER: Inhibition of human WM-115 cell growth in a cell viability assay.

C-33-A = assay: cells; settings: Homo sapiens;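 note: cell viability assay measuring growth inhibition of C-33-A cells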
Description: SANGER: Inhibition of human C-33-A cell growth in a cell viability assay.

NCI-H28 = assay: cells; settings: Homo sapiens;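 note: growth inhibition of human NCI-H28 cells, read out as cell viability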
Description: SANGER: Inhibition of human NCI-H28 cell growth in a cell viability assay.

NCI-H1993 = assay: cells; settings: Homo sapiens;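 note: growth inhibition of the cancer cell line, assessed with a cell viability assay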
Description: SANGER: Inhibition of human NCI-H1993 cell growth in a cell viability assay.

SK-MEL-30 = assay: cells; settings: Homo sapiens;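 note: growth inhibition of SK-MEL-30 cells, determined with a cell viability assay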
Description: SANGER: Inhibition of human SK-MEL-30 cell growth in a cell viability assay.

CP50-MEL-B = assay: cells; settings: Homo sapiens;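 note: growth inhibition of the human cell line, measured with a cell viability read-out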
Description: SANGER: Inhibition of human CP50-MEL-B cell growth in a cell viability assay.

HSC-3 = assay: cells; settings: Homo sapiens
Description: SANGER: Inhibition of human HSC-3 cell growth in a cell viability assay.

UMC-11 = assay: cells; settings: Homo sapiens;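 note: growth inhibition of UMC-11 cells, read out with a cell viability assay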
Description: SANGER: Inhibition of human UMC-11 cell growth in a cell viability assay.

Ca-Ski = assay: cells; settings: Homo sapiens;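 note: cell viability assay measuring inhibition of Ca-Ski cell growth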
Description: SANGER: Inhibition of human Ca-Ski cell growth in a cell viability assay.

NB12 = assay: cells; settings: Homo sapiens;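 note: growth inhibition of human NB12 cells, read out by a cell viability assay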
Description: SANGER: Inhibition of human NB12 cell growth in a cell viability assay.

NCI-H1623 = assay: cells; settings: Homo sapiens;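 note: cell viability assay used as the read-out for growth inhibition of NCI-H1623 cells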
Description: SANGER: Inhibition of human NCI-H1623 cell growth in a cell viability assay.

SK-MES-1 = assay: cells; settings: Homo sapiens;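 note: growth inhibition of human SK-MES-1 cells, read out with a cell viability assay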
Description: SANGER: Inhibition of human SK-MES-1 cell growth in a cell viability assay.

NCI-N87 = assay: cells; settings: Homo sapiens;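 note: growth inhibition of human NCI-N87 cells, read out with a cell viability assay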
Description: SANGER: Inhibition of human NCI-N87 cell growth in a cell viability assay.

SW1710 = assay: cells; settings: Homo sapiens;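 note: growth inhibition of SW1710 cells, determined with a cell viability assay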
Description: SANGER: Inhibition of human SW1710 cell growth in a cell viability assay.

NCI-H661 = assay: cells; settings: Homo sapiens;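 note: cell viability assay read-out, IC50 being the concentration that inhibits growth of the cells by half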
Description: SANGER: Inhibition of human NCI-H661 cell growth in a cell viability assay.

DoTc2-4510 = assay: cells; settings: Homo sapiens
RPMI-2650 = assay: cells; settings: Homo sapiens
Description: SANGER: Inhibition of human RPMI-2650 cell growth in a cell viability assay.

SW1990 = assay: cells; settings: Homo sapiens
Description: SANGER: Inhibition of human SW1990 cell growth in a cell viability assay.

MKN-7 = assay: cells; settings: Homo sapiens;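 note: growth inhibition of MKN-7 cells, read out with a cell viability assay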
Description: SANGER: Inhibition of human MKN7 cell growth in a cell viability assay.

23132-87 = assay: cells; settings: Homo sapiens
Description: SANGER: Inhibition of human 23132-87 cell growth in a cell viability assay.

T98G = assay: cells; settings: Homo sapiens;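 note: growth inhibition of T98G cells, read out by a cell viability assay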
Description: SANGER: Inhibition of human T98G cell growth in a cell viability assay.

UO-31 = assay: cells; settings: Homo sapiens
Description: SANGER: Inhibition of human U031 cell growth in a cell viability assay.

CWR22R = assay: cells; settings: Homo sapiens, 22Rv1;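 note: growth inhibition of 22Rv1 cells, read out with a cell viability assay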
Description: SANGER: Inhibition of human 22RV1 cell growth in a cell viability assay.

NCI-H2405 = assay: cells; settings: Homo sapiens;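 note: growth inhibition of the human cell line, read out with a cell viability assay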
Description: SANGER: Inhibition of human NCI-H2405 cell growth in a cell viability assay.

YKG-1 = assay: cells; settings: Homo sapiens;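 note: cell growth inhibition, read out with a viability assay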
Description: SANGER: Inhibition of human YKG-1 cell growth in a cell viability assay.

HT-1376 = assay: cells; settings: Homo sapiens
Description: SANGER: Inhibition of human HT-1376 cell growth in a cell viability assay.

M14 = assay: cells; settings: Homo sapiens;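 note: growth inhibition of M14 cells, read out with a cell viability assay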
Description: SANGER: Inhibition of human M14 cell growth in a cell viability assay.

NY = assay: cells; settings: Homo sapiens
Description: SANGER: Inhibition of human NY cell growth in a cell viability assay.

HCC 2998 = assay: cells; settings: Homo sapiens;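 note: growth inhibition of human HCC2998 cells, measured with a cell viability read-out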
Description: SANGER: Inhibition of human HCC2998 cell growth in a cell viability assay.

OE19 = assay: cells; settings: Homo sapiens;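 note: growth inhibition of OE19 cells, measured through a cell viability read-out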
Description: SANGER: Inhibition of human OE19 cell growth in a cell viability assay.

CAL-72 = assay: cells; settings: Homo sapiens;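 note: cell viability assay measuring inhibition of proliferation in the CAL-72 cell line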
Description: SANGER: Inhibition of human CAL-72 cell growth in a cell viability assay.

SMILES: CCNc1cc(N[C@H]2CC[C@@H](O)CC2)nc(Nc2ccc3c(ccn3Cc3ccccc3)c2)n1
- IC50 (BOKU): > 5120 nM
- IC50 (EVSA-T): > 5120 nM
- IC50 (NCI-H345): > 5120 nM
- IC50 (IM-9): > 5120 nM
- IC50 (ECC4): > 5120 nM
- IC50 (BC-3): > 5120 nM
- IC50 (BL-70): > 5120 nM
- IC50 (SIMA): > 5120 nM
- IC50 (NCI-H524): > 5120 nM
- IC50 (PF-382): > 5120 nM
- IC50 (THP-1): > 5120 nM
- IC50 (SIG-M5): > 5120 nM
- IC50 (NCI-H2171): > 5120 nM
- IC50 (LC4-1): > 5120 nM
- IC50 (LC-1F): > 5120 nM
- IC50 (EB-3): > 5120 nM
- IC50 (TE-441-T): > 5120 nM

SMILES: CC(C)=CC[C@@H](O)C1=CC(=O)c2c(O)ccc(O)c2C1=O [SHIKONIN]
- IC50 (HT55): 1690 nM
- IC50 (HOP-92): 2010 nM
- IC50 (M059J): 134 nM
- IC50 (BOKU): 1870 nM
- IC50 (HCC70): 2010 nM
- IC50 (PA-1): 201 nM
- IC50 (PANC-08-13): 10400 nM
- IC50 (RVH-421): 1470 nM
- IC50 (CHL-1): 168 nM
- IC50 (MDA-MB-231): 1020 nM
- IC50 (EVSA-T): 410 nM
- IC50 (RD): 449 nM
- IC50 (VMRC-RCZ): 547 nM
- IC50 (ME-180): 279 nM
- IC50 (NCI-H345): 990 nM
- IC50 (NCI-H2342): 134 nM
- IC50 (CaR-1): 1310 nM
- IC50 (NCI-H2009): 20.5 nM
- IC50 (DU-145): 193 nM
- IC50 (WM-115): 10600 nM
- IC50 (C-33-A): 913 nM
- IC50 (NCI-H28): 1010 nM
- IC50 (NCI-H1993): 2940 nM
- IC50 (SK-MEL-30): 695 nM
- IC50 (CP50-MEL-B): 1430 nM
- IC50 (IM-9): 3410 nM
- IC50 (ECC4): 1200 nM
- IC50 (BC-3): 926 nM
- IC50 (BL-70): 278 nM
- IC50 (HSC-3): 337 nM
- IC50 (SIMA): 2320 nM
- IC50 (UMC-11): > 16000 nM
- IC50 (NCI-H524): > 16000 nM
- IC50 (PF-382): 790 nM
- IC50 (Ca-Ski): 650 nM
- IC50 (NB12): 666 nM
- IC50 (NCI-H1623): 2730 nM
- IC50 (THP-1): 891 nM
- IC50 (SK-MES-1): 6290 nM
- IC50 (NCI-N87): 2940 nM
- IC50 (SW1710): < 62.5 nM
- IC50 (NCI-H661): 5430 nM
- IC50 (DoTc2-4510): 263 nM
- IC50 (RPMI-2650): 375 nM
- IC50 (SIG-M5): 170 nM
- IC50 (NCI-H2171): 909 nM
- IC50 (SW1990): 1620 nM
- IC50 (MKN-7): 2210 nM
- IC50 (23132-87): 2110 nM
- IC50 (T98G): 1080 nM
- IC50 (UO-31): 771 nM
- IC50 (CWR22R): 4610 nM
- IC50 (NCI-H2405): 675 nM
- IC50 (YKG-1): 229 nM
- IC50 (HT-1376): 915 nM
- IC50 (LC4-1): 360 nM
- IC50 (M14): 1490 nM
- IC50 (LC-1F): > 16000 nM
- IC50 (NY): 1050 nM
- IC50 (HCC 2998): > 16000 nM
- IC50 (OE19): 807 nM
- IC50 (EB-3): 1140 nM
- IC50 (TE-441-T): < 62.5 nM
- IC50 (CAL-72): 1010 nM

SMILES: COc1cc(C)c(Sc2cnc(NC(=O)c3ccc(CNC(C)C(C)(C)C)cc3)s2)cc1C(=O)N1CCN(C(C)=O)CC1 (configuration not stated)
- IC50 (BOKU): > 10200 nM
- IC50 (EVSA-T): > 10200 nM
- IC50 (NCI-H345): > 10200 nM
- IC50 (IM-9): > 10200 nM
- IC50 (ECC4): > 10200 nM
- IC50 (BC-3): > 10200 nM
- IC50 (BL-70): > 10200 nM
- IC50 (SIMA): > 10200 nM
- IC50 (NCI-H524): > 10200 nM
- IC50 (PF-382): > 10200 nM
- IC50 (THP-1): > 10200 nM
- IC50 (SIG-M5): 8070 nM
- IC50 (NCI-H2171): > 10200 nM
- IC50 (LC4-1): > 10200 nM
- IC50 (LC-1F): > 10200 nM
- IC50 (EB-3): > 10200 nM
- IC50 (TE-441-T): > 10200 nM

SMILES: Cc1nc(Nc2ncc(C(=O)Nc3c(C)cccc3Cl)s2)cc(N2CCN(CCO)CC2)n1 [DASATINIB]
- IC50 (BOKU): 491 nM
- IC50 (EVSA-T): > 1280 nM
- IC50 (NCI-H345): > 1280 nM
- IC50 (IM-9): > 1280 nM
- IC50 (ECC4): > 1280 nM
- IC50 (BC-3): > 1280 nM
- IC50 (BL-70): < 5 nM
- IC50 (SIMA): > 1280 nM
- IC50 (NCI-H524): > 1280 nM
- IC50 (PF-382): 177 nM
- IC50 (THP-1): > 1280 nM
- IC50 (SIG-M5): > 1280 nM
- IC50 (NCI-H2171): > 1280 nM
- IC50 (LC4-1): > 1280 nM
- IC50 (LC-1F): > 1280 nM
- IC50 (EB-3): > 1280 nM
- IC50 (TE-441-T): > 1280 nM

SMILES: Cc1n[nH]c2ccc(-c3cncc(OC[C@@H](N)Cc4c[nH]c5ccccc45)c3)cc12 [A-443654]
- IC50 (BOKU): > 1020 nM
- IC50 (EVSA-T): 220 nM
- IC50 (NCI-H345): 750 nM
- IC50 (IM-9): > 1020 nM
- IC50 (ECC4): > 1020 nM
- IC50 (BC-3): 342 nM
- IC50 (BL-70): 57 nM
- IC50 (SIMA): > 1020 nM
- IC50 (NCI-H524): 860 nM
- IC50 (PF-382): 638 nM
- IC50 (THP-1): > 1020 nM
- IC50 (SIG-M5): 130 nM
- IC50 (NCI-H2171): > 1020 nM
- IC50 (LC4-1): 217 nM
- IC50 (LC-1F): 181 nM
- IC50 (EB-3): 334 nM
- IC50 (TE-441-T): 798 nM

SMILES: Cc1ccc(NC(=O)c2cccc(C(C)(C)C#N)c2)cc1Nc1ccc2ncn(C)c(=O)c2c1
- IC50 (EVSA-T): > 4000 nM
- IC50 (NCI-H345): > 4000 nM
- IC50 (IM-9): > 4000 nM
- IC50 (ECC4): > 4000 nM
- IC50 (BC-3): > 4000 nM
- IC50 (BL-70): 2860 nM
- IC50 (SIMA): > 4000 nM
- IC50 (NCI-H524): > 4000 nM
- IC50 (PF-382): 3050 nM
- IC50 (NB12): > 4000 nM
- IC50 (THP-1): > 4000 nM
- IC50 (SIG-M5): 9.45 nM
- IC50 (NCI-H2171): > 4000 nM
- IC50 (LC4-1): > 4000 nM
- IC50 (LC-1F): 3300 nM
- IC50 (HCC 2998): 222 nM
- IC50 (EB-3): > 4000 nM
- IC50 (TE-441-T): 2810 nM

SMILES: Cc1[nH]c(/C=C2\C(=O)Nc3ccc(S(=O)(=O)Cc4c(Cl)cccc4Cl)cc32)c(C)c1C(=O)N1CCC[C@@H]1CN1CCCC1 [PHA-665752]
- IC50 (BOKU): > 2000 nM
- IC50 (EVSA-T): > 2000 nM
- IC50 (NCI-H345): > 2000 nM
- IC50 (IM-9): > 2000 nM
- IC50 (ECC4): > 2000 nM
- IC50 (BC-3): > 2000 nM
- IC50 (BL-70): > 2000 nM
- IC50 (SIMA): > 2000 nM
- IC50 (NCI-H524): > 2000 nM
- IC50 (PF-382): > 2000 nM
- IC50 (THP-1): > 2000 nM
- IC50 (SIG-M5): > 2000 nM
- IC50 (NCI-H2171): > 2000 nM
- IC50 (LC4-1): > 2000 nM
- IC50 (LC-1F): > 2000 nM
- IC50 (EB-3): > 2000 nM
- IC50 (TE-441-T): > 2000 nM

Source: ChEMBL document CHEMBL1201861, “Genomics of Drug Sensitity in Cancer screening data, Wellcome Trust Sanger Institute”
